The record followed here is patent US10611750B2, “Tetrahydroquinoline compositions as bet bromodomain inhibitors” (FORMA Therapeutics, Inc., priority 2013, dated 2020).

The target of test [1] is T1, BRD4 Bromodomain 1 (BRD4 BD1) (Homo sapiens, UniProt O60885).
T1 construct: 44-168 and BRD4 BD2
Briefly: AlphaScreen binding assay, BRD4 BD1. As to conditions: His-tagged BRD4 BD1 50 nM, biotinylated H4 (1-21) K5/8/12/16 tetra-acetylated peptide 50 nM, compounds listed under IC50 range headings. Summed up:
(§1)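 An AlphaScreen competition format was used with His-BRD4 BD1 or BD2 and biotin-H4 K5/8/12/16-acetyl peptide, each at matched final levels of 50 nM (BD1) or 100 nM (BD2). Incubation in HEPES/NaCl buffer with 0.1% BSA and 0.01% Triton X-100 ran ≥1 h before IC50 determination.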
Background: Bead proximity is the source of the signal in Alpha formats.

For test [2], the target named is T2, BRD4 Bromodomain 2 (BRD4 BD2) (Homo sapiens, UniProt O60885).
T2 construct: 333-460 were cloned, expressed, and purified to homogeneity
As to the kind of experiment: AlphaScreen binding assay, BRD4 BD2. As to conditions: His-tagged BRD4 BD2 100 nM, biotinylated H4 (1-21) K5/8/12/16 tetra-acetylated peptide 100 nM, compounds listed under IC50 range headings. Summed up:
as §1

The test system of test [3] is acute myelocytic leukemia (AML) cell line MV4-11. Briefly: Oncology cell growth assay (3-day proliferation, CellTiter-Glo). Format: cell-based. The conditions noted are these: Homo sapiens, MV4-11, 72 h, MV4-11 cells, 3000 cells/well, compounds listed under IC50 range headings, read-out: MV411 IC50 (gIC50, inhibition of proliferation). Summed up: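 MV4-11 AML cells (RPMI 1640, 10% FBS) plated at 3000 cells/well and exposed 72 h to compound at final 10 to 0.0045 μM (3-fold series). Viability read by CellTiter-Glo luminescence; gIC50 from four-parameter logistic fit between DMSO control and no-cell background.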
(Cellular ATP, detected with luciferase, serves as a proxy for viable cell number.)

The structures appear in SMILES notation.

For the molecule `CCCOc1c(-c2ccc(S(C)(=O)=O)cn2)ccc2c1CC[C@H](C)N2C(C)=O` [I-114, (S)-1-(2-methyl-6-(5-(methylsulfonyl)pyridin-2-yl)-5-propoxy-3,4-dihydroquinolin-1(2H)-yl)ethanone], the IC50 was 1 to 10 µM in test [1], 0.05 to 0.5 µM in test [2] and > 1 µM in test [3].
The corresponding values for `CCCOc1c(-c2ccc(NS(C)(=O)=O)cn2)ccc2c1CC[C@H](C)N2C(C)=O` [I-115, (S)—N-(6-(1-acetyl-2-methyl-5-propoxy-1,2,3,4-tetrahydroquinolin-6-yl)pyridin-3-yl)methanesulfonamide] are 1 to 10 µM, 0.05 to 0.5 µM and > 1 µM.
The corresponding values for `CC(=O)N1c2ccc(-c3ccc(S(C)(=O)=O)cn3)c(OCC(=O)N(C)C)c2CC[C@@H]1C` [I-116, (S)-2-(1-acetyl-2-methyl-6-(5-(methylsulfonyl)pyridin-2-yl)-1,2,3,4-tetrahydroquinolin-5-yloxy)-N,N-dimethylacetamide] are ≥ 10 µM, 0.05 to 0.5 µM and > 1 µM.
In the case of `CCCOc1c(-c2nc3ccccc3o2)ccc2c1CC[C@H](C)N2C(C)=O` [I-117, (S)-1-(6-(benzo[d]oxazol-2-yl)-2-methyl-5-propoxy-3,4-dihydroquinolin-1(2H)-yl)ethanone], the IC50 was 1 to 10 µM in test [1], 0.05 to 0.5 µM in test [2] and > 1 µM in test [3].
As for `CCCOc1c(-c2cc3ccccn3n2)ccc2c1CC[C@H](C)N2C(C)=O` [I-118, (S)-1-(2-methyl-5-propoxy-6-(pyrazolo[1,5-a]pyridin-2-yl)-3,4-dihydroquinolin-1(2H)-yl)ethanone], the figures for the IC50 in test [1], in test [2] and in test [3] were 1 to 10 µM, ≥ 0.5 µM and > 1 µM, respectively.
`CCCOc1c(-c2cn3ccccc3n2)ccc2c1CC[C@H](C)N2C(C)=O` [I-119, (S)-1-(6-(imidazo[1,2-a]pyridin-2-yl)-2-methyl-5-propoxy-3,4-dihydroquinolin-1(2H)-yl)ethanone]: the IC50 in test [1] is 1 to 10 µM; in test [2] it was 0.05 to 0.5 µM; in test [3], 0.5 to 1 µM.
The corresponding values for `CCCOc1c(-c2nc3ccccc3s2)ccc2c1CC[C@H](C)N2C(C)=O` [I-120, (S)-1-(6-(benzo[d]thiazol-2-yl)-2-methyl-5-propoxy-3,4-dihydroquinolin-1(2H)-yl)ethanone] are 1 to 10 µM, ≥ 0.5 µM and > 1 µM.
With `CCCOc1c(-c2nc3ccccc3[nH]2)ccc2c1CC[C@H](C)N2C(C)=O` [I-121, (S)-1-(6-(1H-benzo[d]imidazol-2-yl)-2-methyl-5-propoxy-3,4-dihydroquinolin-1(2H)-yl)ethanone], the IC50 in test [1] lay within 1 to 10 µM; in test [2] it was 0.05 to 0.5 µM; in test [3], 0.5 to 1 µM.
Taken in the same sequence, the figures for `COC(=O)N1c2ccc(-c3cnn(C4CCNCC4)c3)c(Oc3ccc(Cl)cc3C#N)c2CC[C@@H]1C` [I-132, (S)-methyl 5-(4-chloro-2-cyanophenoxy)-2-methyl-6-(1-(piperidin-4-yl)-1H-pyrazol-4-yl)-3,4-dihydroquinoline-1(2H)-carboxylate] were 0.1 to 1 µM, < 0.05 µM and < 0.5 µM.
With `COC(=O)N1c2ccc(-c3cnn(C4CCNCC4)c3)c(Oc3ccc(F)cc3C#N)c2CC[C@@H]1C` [I-133, (S)-methyl 5-(2-cyano-4-fluorophenoxy)-2-methyl-6-(1-(piperidin-4-yl)-1H-pyrazol-4-yl)-3,4-dihydroquinoline-1(2H)-carboxylate], the IC50 in test [1] is 0.1 to 1 µM; in test [2] it was < 0.05 µM; in test [3], < 0.5 µM.
Turning to `COC(=O)N1c2ccc(-c3cnn(C4CCNCC4)c3)c(Oc3ccc(C#N)cc3Cl)c2CC[C@@H]1C` [I-134, (S)-methyl 5-(2-chloro-4-cyanophenoxy)-2-methyl-6-(1-(piperidin-4-yl)-1H-pyrazol-4-yl)-3,4-dihydroquinoline-1(2H)-carboxylate], the IC50 in test [1] is 0.1 to 1 µM; in test [2], < 0.05 µM; in test [3], < 0.5 µM.
Taken in the same sequence, the figures for `COC(=O)N1c2ccc(-c3cnn(C4CCNCC4)c3)c(Oc3ccc(C#N)cc3F)c2CC[C@@H]1C` [I-135, (S)-methyl 5-(4-cyano-2-fluorophenoxy)-2-methyl-6-(1-(piperidin-4-yl)-1H-pyrazol-4-yl)-3,4-dihydroquinoline-1(2H)-carboxylate] were 0.1 to 1 µM, < 0.05 µM and < 0.5 µM.
The corresponding values for `CC(=O)N1c2ccc(-c3cnn(C4CCNCC4)c3)c(Oc3ccccc3C#N)c2CC[C@@H]1C` [I-136, (S)-2-(1-acetyl-2-methyl-6-(1-(piperidin-4-yl)-1H-pyrazol-4-yl)-1,2,3,4-tetrahydroquinolin-5-yloxy)benzonitrile] are 0.1 to 1 µM, < 0.05 µM and < 0.5 µM.
With `COC(=O)N1c2ccc(-c3cnn(C4CCNCC4)c3)c(Oc3ccccc3C#N)c2CC[C@@H]1C` [I-137, methyl (S)-5-(2-cyanophenoxy)-2-methyl-6-(1-(piperidin-4-yl)-1H-pyrazol-4-yl)-3,4-dihydroquinoline-1(2H)-carboxylate], the IC50 in test [1] is 0.1 to 1 µM; in test [2], < 0.05 µM; in test [3], < 0.5 µM.
As for `COC(=O)N1c2ccc(-c3cnn(C4CNC4)c3)c(Oc3ccccc3C#N)c2CC[C@@H]1C` [I-138, (S)-methyl 6-(1-(azetidin-3-yl)-1H-pyrazol-4-yl)-5-(2-cyanophenoxy)-2-methyl-3,4-dihydroquinoline-1(2H)-carboxylate], the IC50 in test [1] was 0.1 to 1 µM; in test [2] it was < 0.05 µM; in test [3], < 0.5 µM.
The corresponding values for `COC(=O)N1c2ccc(-c3cnn(C4CNC4)c3)c(Oc3cccc(F)c3C#N)c2CC[C@@H]1C` [I-139, (S)-methyl 6-(1-(azetidin-3-yl)-1H-pyrazol-4-yl)-5-(2-cyano-3-fluorophenoxy)-2-methyl-3,4-dihydroquinoline-1(2H)-carboxylate] are 0.1 to 1 µM, < 0.05 µM and < 0.5 µM.
Taken in the same sequence, the figures for `CC(=O)N1c2ccc(-c3cnn(C4CCNCC4)c3)c(Oc3ccc(C#N)cc3)c2CC[C@@H]1C` [I-140, (S)-4-(1-acetyl-2-methyl-6-(1-(piperidin-4-yl)-1H-pyrazol-4-yl)-1,2,3,4-tetrahydroquinolin-5-yloxy)benzonitrile] were 0.1 to 1 µM, < 0.05 µM and < 0.5 µM.
Taken in the same sequence, the figures for `CC(=O)N1c2ccc(-c3cnn(C4CCNCC4)c3)c(Oc3ncccc3C(F)(F)F)c2CC[C@@H]1C` [I-141, (S)-1-(2-methyl-6-(1-(piperidin-4-yl)-1H-pyrazol-4-yl)-5-(3-(trifluoromethyl)pyridin-2-yloxy)-3,4-dihydroquinolin-1(2H)-yl)ethanone] were 0.1 to 1 µM, < 0.05 µM and < 0.5 µM.
As to `CC(=O)N1c2ccc(-c3cnn(C4CCNCC4)c3)c(Oc3ncccc3Cl)c2CC[C@@H]1C` [I-142, (S)-1-(5-(3-chloropyridin-2-yloxy)-2-methyl-6-(1-(piperidin-4-yl)-1H-pyrazol-4-yl)-3,4-dihydroquinolin-1 (2H)-yl)ethanone], the values for the IC50 in test [1], in test [2] and in test [3] were 0.1 to 1 µM, 0.05 to 0.5 µM and < 0.5 µM, respectively.
Taken in the same sequence, the figures for `CC(=O)N1c2ccc(-c3cnn(C4CCNCC4)c3)c(Oc3ncccc3C#N)c2CC[C@@H]1C` [I-143, (S)-2-(1-acetyl-2-methyl-6-(1-(piperidin-4-yl)-1H-pyrazol-4-yl)-1,2,3,4-tetrahydroquinolin-5-yloxy)nicotinonitrile] were 0.1 to 1 µM, 0.05 to 0.5 µM and < 0.5 µM.
The corresponding values for `CC(=O)N1c2ccc(-c3cnn(C4CCNCC4)c3)c(Oc3ncc(C)cn3)c2CC[C@@H]1C` [I-144, (S)-1-(2-methyl-5-(5-methylpyrimidin-2-yloxy)-6-(1-(piperidin-4-yl)-1H-pyrazol-4-yl)-3,4-dihydroquinolin-1 (2H)-yl)ethanone] are 0.1 to 1 µM, < 0.05 µM and < 0.5 µM.
Taken in the same sequence, the figures for `CC(=O)N1c2ccc(-c3cnn(C4CCNCC4)c3)c(Oc3cnccn3)c2CC[C@@H]1C` [I-145, (S)-1-(2-methyl-6-(1-(piperidin-4-yl)-1H-pyrazol-4-yl)-5-(pyrazin-2-yloxy)-3,4-dihydroquinolin-1(2H)-yl)ethanone] were 0.1 to 1 µM, < 0.05 µM and < 0.5 µM.
For `COC(=O)N1c2ccc(-c3cnn(C4CCNCC4)c3)c(Oc3ccc(C#N)cc3)c2CC[C@@H]1C` [I-146, (S)-methyl 5-(4-cyanophenoxy)-2-methyl-6-(1-(piperidin-4-yl)-1H-pyrazol-4-yl)-3,4-dihydroquinoline-1(2H)-carboxylate], the IC50 is 0.1 to 1 µM in test [1], 0.05 to 0.5 µM in test [2] and < 0.5 µM in test [3].
The corresponding values for `COC(=O)N1c2ccc(-c3cnn(C4CCNCC4)c3)c(Oc3ncccc3C#N)c2CC[C@@H]1C` [I-147, (S)-methyl 5-(3-cyanopyridin-2-yloxy)-2-methyl-6-(1-(piperidin-4-yl)-1H-pyrazol-4-yl)-3,4-dihydroquinoline-1(2H)-carboxylate] are 1 to 10 µM, 0.05 to 0.5 µM and < 0.5 µM.
